According to publication PMC3914206:

Tests used:
Assay type in all cases: binding
Settings in all cases: Compound Concentration 10 µM
panel of 442 kinases [1] = molecular target: T1, panel of 442 kinases (Homo sapiens, UniProt Q9HBH9)
T1 construct: purchased KINOMEscan
Description: (§1) We assessed the selectivity of members of this scaffold using the KINOMEscan methodology across a near comprehensive panel of 442 kinases [[18,27]].

panel of 442 kinases [2] = molecular target: T2, panel of 442 kinases (Homo sapiens, UniProt Q8IVW4)
T2 construct: purchased KINOMEscan
Description: as §1

panel of 442 kinases [3] = molecular target: T3, panel of 442 kinases (Homo sapiens, UniProt Q7KZI7)
T3 construct: purchased KINOMEscan
Description: as §1

panel of 442 kinases [4] = molecular target: T4, panel of 442 kinases (Homo sapiens, UniProt P07949, V804M)
T4 construct: purchased KINOMEscan
Description: as §1

T3 sequence (Q7KZI7 whole entry): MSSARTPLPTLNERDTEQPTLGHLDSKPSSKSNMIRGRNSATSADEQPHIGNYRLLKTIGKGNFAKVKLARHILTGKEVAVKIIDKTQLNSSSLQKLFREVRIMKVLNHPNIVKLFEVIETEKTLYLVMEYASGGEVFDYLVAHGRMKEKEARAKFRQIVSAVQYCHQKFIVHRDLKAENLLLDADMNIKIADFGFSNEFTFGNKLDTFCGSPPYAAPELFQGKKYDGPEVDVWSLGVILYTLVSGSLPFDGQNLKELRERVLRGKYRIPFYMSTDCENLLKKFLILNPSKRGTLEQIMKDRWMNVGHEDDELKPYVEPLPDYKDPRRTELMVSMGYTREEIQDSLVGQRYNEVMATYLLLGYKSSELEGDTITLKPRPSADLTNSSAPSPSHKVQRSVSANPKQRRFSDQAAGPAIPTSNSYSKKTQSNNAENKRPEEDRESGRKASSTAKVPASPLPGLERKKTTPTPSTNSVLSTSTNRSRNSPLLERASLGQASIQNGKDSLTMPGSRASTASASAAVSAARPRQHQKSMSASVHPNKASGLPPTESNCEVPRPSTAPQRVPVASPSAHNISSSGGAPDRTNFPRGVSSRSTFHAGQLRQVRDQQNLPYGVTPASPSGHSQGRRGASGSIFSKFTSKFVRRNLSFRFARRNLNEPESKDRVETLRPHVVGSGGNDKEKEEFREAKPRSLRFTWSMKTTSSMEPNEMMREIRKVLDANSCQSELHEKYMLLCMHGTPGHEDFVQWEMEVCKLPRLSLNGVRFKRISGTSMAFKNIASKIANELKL
T1 sequence (Q9HBH9 whole entry): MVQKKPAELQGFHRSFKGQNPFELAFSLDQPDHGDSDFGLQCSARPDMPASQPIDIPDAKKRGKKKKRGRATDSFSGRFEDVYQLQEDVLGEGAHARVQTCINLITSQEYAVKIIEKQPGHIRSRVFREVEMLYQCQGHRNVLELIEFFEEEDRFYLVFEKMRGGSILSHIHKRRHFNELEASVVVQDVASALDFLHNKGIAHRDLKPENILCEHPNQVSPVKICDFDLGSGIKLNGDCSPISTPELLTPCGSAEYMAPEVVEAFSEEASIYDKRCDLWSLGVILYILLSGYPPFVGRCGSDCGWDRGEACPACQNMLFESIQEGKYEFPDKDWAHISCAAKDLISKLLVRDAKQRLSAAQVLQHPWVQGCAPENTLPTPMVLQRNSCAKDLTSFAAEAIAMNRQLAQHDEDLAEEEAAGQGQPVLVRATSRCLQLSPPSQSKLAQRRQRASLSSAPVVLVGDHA
T4 sequence (P07949 29-1114 V804M): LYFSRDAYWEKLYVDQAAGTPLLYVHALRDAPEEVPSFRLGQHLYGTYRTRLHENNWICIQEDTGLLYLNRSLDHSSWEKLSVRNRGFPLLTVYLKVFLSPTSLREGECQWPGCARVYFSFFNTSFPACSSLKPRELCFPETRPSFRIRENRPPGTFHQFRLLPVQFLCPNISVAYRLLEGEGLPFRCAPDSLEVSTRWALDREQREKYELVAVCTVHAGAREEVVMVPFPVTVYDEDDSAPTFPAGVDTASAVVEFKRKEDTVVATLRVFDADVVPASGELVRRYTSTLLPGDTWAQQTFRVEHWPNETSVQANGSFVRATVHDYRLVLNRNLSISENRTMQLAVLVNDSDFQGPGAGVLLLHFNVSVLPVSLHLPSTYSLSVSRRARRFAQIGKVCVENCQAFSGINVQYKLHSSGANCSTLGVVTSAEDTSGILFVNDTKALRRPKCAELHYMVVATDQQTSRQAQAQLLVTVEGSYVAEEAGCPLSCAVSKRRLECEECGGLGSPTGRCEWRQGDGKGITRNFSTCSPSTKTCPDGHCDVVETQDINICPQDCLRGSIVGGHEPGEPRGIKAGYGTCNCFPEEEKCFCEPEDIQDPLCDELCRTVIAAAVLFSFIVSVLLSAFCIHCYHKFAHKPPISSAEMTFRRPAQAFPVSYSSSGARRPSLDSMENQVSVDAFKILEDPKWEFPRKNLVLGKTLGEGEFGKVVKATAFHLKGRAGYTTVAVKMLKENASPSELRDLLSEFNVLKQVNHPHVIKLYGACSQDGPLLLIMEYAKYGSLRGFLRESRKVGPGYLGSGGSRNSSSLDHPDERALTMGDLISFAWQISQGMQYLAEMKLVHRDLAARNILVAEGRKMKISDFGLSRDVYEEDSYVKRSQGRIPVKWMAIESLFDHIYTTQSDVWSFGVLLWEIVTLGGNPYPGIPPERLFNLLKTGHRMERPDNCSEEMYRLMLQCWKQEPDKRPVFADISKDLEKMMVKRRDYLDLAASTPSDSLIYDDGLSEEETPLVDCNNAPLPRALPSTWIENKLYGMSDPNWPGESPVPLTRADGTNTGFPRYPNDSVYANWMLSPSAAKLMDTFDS
T2 sequence (Q8IVW4 whole entry): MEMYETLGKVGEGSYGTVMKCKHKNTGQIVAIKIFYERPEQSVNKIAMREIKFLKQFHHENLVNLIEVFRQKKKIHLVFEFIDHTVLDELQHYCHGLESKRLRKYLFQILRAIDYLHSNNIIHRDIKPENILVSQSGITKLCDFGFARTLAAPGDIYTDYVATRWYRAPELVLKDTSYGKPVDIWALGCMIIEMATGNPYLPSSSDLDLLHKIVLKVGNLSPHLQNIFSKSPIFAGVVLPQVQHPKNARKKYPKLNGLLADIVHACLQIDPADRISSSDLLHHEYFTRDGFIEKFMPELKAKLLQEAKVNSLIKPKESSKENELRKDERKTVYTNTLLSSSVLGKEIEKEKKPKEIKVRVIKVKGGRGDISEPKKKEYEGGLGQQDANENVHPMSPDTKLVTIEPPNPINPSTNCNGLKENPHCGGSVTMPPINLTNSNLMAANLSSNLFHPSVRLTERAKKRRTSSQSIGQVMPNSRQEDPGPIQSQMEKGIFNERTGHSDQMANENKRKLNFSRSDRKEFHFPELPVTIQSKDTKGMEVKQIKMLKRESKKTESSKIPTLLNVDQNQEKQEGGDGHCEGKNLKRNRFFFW

| SMILES | KINOMEscan: MKNK2 (panel of 442 kinases [1]) | KINOMEscan: CDKL3 (panel of 442 kinases [2]) | KINOMEscan: MARK2 (panel of 442 kinases [3]) | KINOMEscan: RET(V804M) (panel of 442 kinases [4]) |
| --- | --- | --- | --- | --- |
| COc1cc(C(=O)N2CCC(N3CCN(C)CC3)CC2)ccc1Nc1ncc2c(n1)N1CCc3cccc(c31)C(=O)N2C [Compound 24] | 8.6 | 81 | – | – |
| CCOc1cc(C(=O)N2CCC(N3CCN(C)CC3)CC2)ccc1Nc1ncc2c(n1)N(C1CCCC1)c1ccccc1C(=O)N2C [Compound 26] | 100 | 99 | 96 | 100 |
| COc1cc(C(=O)N2CCC(N3CCN(C)CC3)CC2)ccc1Nc1ncc2c(n1)N(C1CCCC1)c1ccccc1C(=O)N2C [Compound 25, 11-cyclopentyl-2-((2-methoxy-4-(4-(4-methylpiperazin-1-yl)piperidine-1-carbonyl)phenyl)amino)-5-methyl-5H-benzo[e]pyrimido[5,4-b][1,4]diazepin-6(11H)-one] | 100 | 73 | 98 | 100 |
| COc1cc(C(=O)N2CCC(N3CCN(C)CC3)CC2)ccc1Nc1ncc2c(n1)N(C)c1ccccc1C(=O)N2C [15 (LRRK2-IN-1)] | 1.2 | 83 | 100 | 80 |
